System: GluR6 glutamate receptor
Assay: Whole-cell current recording with cell-flow method, HEK 293 cells expressing GluR6
Assay type: cell-based
Settings: 1 mM DECM, −60 mV, pH 7.4, 22° C.
Description: In whole-cell current recording experiments with DECM-caged glutamate, HEK 293 cells stably transfected with cDNA encoding the GluR6 were used. In whole-cell current recording experiments with DECM-caged glycine, HEK 293 cells were transiently transfected with the cDNA of the α1-subunit of the human glycine receptor by using the Polyfect™ transfection reagent (Qiagen GmbH, D-40724, Hilden, Germany). The cDNA of the α1-subunit was kindly provided by Professor H. Betz (Max-Plank-Institute for brain Research, Frankfurt, Germany). The cells were co-transfected with cDNA encoding the green fluorescent protein (pGreen Lantern plasmid, Life Technologies, Gaitherberg, Md.) to detect transfected cells (Chalfie et al., “Green Fluorescent Protein as a Marker for Gene Expression,” Science 263:802-805 (1994), which is hereby incorporated by reference in its entirety).
The cells were used for electrophysiological experiments between 24 and 72 h after each passage. Whole-cell currents evoked by glutamate or glycine (100 μM) were recorded using the whole-cell configuration (Hamill et al., “Improved Patch-Clamp Techniques for High-Resolution Current Recording From Cells and Cell-Free Membrane Patches,” Pfluegers Arch 391:85-100 (1981), which is hereby incorporated by reference in its entirety) at room temperature, −60 mV, and pH 7.4. The experiments using DECM-caged glutamate were carried out in the absence or presence of 2 mM DECM-caged glutamate (FIG. 5A) or 1 mM 7-N,N-diethylamino-4-hydroxymethylcoumarin (2) (FIG. 5B). Alternatively, the experiments using DECM-caged glycine were carried out in the absence or presence of 1 mM DECM-caged-glycine (FIG. 10). The solution in the recording pipet contained 120 mM CsCl, 10 mM EGTA, and 10 mM HEPES, adjusted to pH 7.4. The HEK cell bath solution contained 150 mM NaCl, 1 mM CaCl2, 10 mM HEPES, pH 7.4. The resistance of the recording electrode filled with buffer solution was typically 3-5 MΩ and the series resistance was 5-6 MΩ. The cells were held at a constant transmembrane voltage of −60 mV and room temperature (22° C.). […]

Compound: CCN(CC)c1ccc2c(CO)cc(=O)oc2c1 [DECM, 7-N,N-Diethylamino-4-hydroxymethylcoumarin]
- whole-cell current evoked by 100 μM glutamate, presence vs absence of compound: do not inhibit

Reference: patent US8053585B2, “Protecting group for carboxylic acids that can be photolyzed by visible light” (Cornell Research Foundation, Inc., priority 2006, dated 2011)
